Each structure is given as a SMILES string.

For this assay, the target named is hNav1.7 (Homo sapiens, UniProt Q15858). Nature of the assay: cell-based. The following applies: ratio of PX tonic IC50 values; Table 11. Format: cell-based.
Chain of hNav1.7 (Q15858 whole entry): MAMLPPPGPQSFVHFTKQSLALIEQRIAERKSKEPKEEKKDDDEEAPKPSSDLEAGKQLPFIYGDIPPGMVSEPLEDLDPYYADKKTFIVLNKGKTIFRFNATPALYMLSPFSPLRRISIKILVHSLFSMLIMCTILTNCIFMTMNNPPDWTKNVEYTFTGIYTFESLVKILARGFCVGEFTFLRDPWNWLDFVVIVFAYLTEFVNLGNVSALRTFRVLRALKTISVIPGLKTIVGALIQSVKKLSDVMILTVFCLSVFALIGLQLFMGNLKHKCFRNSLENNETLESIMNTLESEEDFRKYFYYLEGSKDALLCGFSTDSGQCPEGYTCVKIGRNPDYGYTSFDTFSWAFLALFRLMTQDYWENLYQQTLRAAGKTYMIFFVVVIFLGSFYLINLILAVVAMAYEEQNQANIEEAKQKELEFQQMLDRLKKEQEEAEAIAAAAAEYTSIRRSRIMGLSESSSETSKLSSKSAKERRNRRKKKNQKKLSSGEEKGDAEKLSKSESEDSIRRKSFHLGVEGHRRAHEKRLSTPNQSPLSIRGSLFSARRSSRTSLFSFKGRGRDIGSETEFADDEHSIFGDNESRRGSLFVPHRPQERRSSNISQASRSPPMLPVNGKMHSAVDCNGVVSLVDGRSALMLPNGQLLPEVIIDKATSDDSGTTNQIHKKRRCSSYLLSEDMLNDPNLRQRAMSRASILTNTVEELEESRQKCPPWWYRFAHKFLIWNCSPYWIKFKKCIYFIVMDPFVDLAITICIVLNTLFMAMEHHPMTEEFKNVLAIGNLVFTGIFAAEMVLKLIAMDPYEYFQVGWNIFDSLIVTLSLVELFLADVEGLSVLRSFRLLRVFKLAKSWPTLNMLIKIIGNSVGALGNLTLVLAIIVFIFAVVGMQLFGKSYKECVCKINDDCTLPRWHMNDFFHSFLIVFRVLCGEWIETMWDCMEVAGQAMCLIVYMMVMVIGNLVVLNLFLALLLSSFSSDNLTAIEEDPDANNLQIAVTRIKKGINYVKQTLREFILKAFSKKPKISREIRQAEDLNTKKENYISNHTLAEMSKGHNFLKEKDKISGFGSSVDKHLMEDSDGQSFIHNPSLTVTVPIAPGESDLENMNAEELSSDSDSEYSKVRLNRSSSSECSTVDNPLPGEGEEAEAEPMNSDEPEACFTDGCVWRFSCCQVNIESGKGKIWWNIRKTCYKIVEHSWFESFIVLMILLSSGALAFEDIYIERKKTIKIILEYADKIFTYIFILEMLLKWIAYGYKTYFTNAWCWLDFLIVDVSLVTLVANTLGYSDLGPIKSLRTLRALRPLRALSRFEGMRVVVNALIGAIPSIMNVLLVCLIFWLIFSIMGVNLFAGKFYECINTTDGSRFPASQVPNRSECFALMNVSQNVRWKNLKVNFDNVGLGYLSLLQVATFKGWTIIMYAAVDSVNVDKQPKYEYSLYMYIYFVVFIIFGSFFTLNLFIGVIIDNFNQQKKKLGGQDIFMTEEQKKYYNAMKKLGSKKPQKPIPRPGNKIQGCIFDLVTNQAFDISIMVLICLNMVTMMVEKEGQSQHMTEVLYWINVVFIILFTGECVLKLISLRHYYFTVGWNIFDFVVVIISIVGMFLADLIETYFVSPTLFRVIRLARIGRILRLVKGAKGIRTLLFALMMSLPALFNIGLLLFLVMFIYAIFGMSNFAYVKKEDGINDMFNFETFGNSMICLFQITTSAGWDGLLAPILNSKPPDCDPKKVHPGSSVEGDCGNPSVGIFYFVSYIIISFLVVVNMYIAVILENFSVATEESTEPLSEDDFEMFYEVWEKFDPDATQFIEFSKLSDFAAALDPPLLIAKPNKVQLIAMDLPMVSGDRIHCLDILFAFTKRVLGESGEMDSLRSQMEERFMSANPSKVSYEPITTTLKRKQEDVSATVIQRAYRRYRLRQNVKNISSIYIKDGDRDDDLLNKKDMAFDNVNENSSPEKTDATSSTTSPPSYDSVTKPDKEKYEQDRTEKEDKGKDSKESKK
For `CCCC[C@@H]1NC(=O)[C@H](Cc2c[nH]c3ccccc23)NC(=O)[C@H](CCCCN)NC(=O)[C@H](CCC(N)=O)NC(=O)[C@@H](NC(=O)[C@H](Cc2ccc(O)cc2)NC(=O)[C@H](N)Cc2ccccc2)CSSC[C@@H]2NC(=O)[C@@H]3CSSC[C@@H](C(=O)N[C@@H](CCCNC(=N)N)C(=O)N[C@@H](CCCCN)C(=O)N[C@H](C(=O)N[C@H](C(N)=O)[C@@H](C)CC)[C@@H](C)CC)NC(=O)[C@H](Cc4c[nH]c5ccccc45)NC(=O)[C@H](CC(C)C)NC(=O)[C@H](CCCCN)NC(=O)[C@H](CSSC[C@H](NC(=O)[C@H]([C@@H](C)O)NC(=O)[C@H](Cc4c[nH]c5ccccc45)NC1=O)C(=O)N[C@@H](CC(=O)O)C(=O)N[C@@H](CO)C(=O)N[C@@H](CCCCN)C(=O)N[C@@H](CCCNC(=N)N)C(=O)N[C@@H](C)C(=O)N3)NC(=O)[C@H](CCCNC(=N)N)NC(=O)[C@H](CC(C)C)NC(=O)CNC(=O)[C@H](CCC(=O)O)NC2=O` [compound 374], the Nav1.4/Nav1.7 amounted to 19 and the Nav1.5/Nav1.7 amounted to 1757.

With `CCCC[C@@H]1NC(=O)[C@H](Cc2c[nH]c3ccccc23)NC(=O)[C@H](CCCCN)NC(=O)[C@H](CCC(N)=O)NC(=O)[C@@H](NC(=O)[C@H](Cc2ccc(O)cc2)NC(=O)CCN)CSSC[C@@H]2NC(=O)[C@@H]3CSSC[C@@H](C(=O)N[C@@H](CCCNC(=N)N)C(=O)N[C@@H](CCCCN)C(=O)N[C@H](C(=O)N[C@H](C(N)=O)[C@@H](C)CC)[C@@H](C)CC)NC(=O)[C@H](Cc4c[nH]c5ccccc45)NC(=O)[C@H](CC(C)C)NC(=O)[C@H](CCCCN)NC(=O)[C@H](CSSC[C@H](NC(=O)[C@H]([C@@H](C)O)NC(=O)[C@H](Cc4c[nH]c5ccccc45)NC1=O)C(=O)N[C@@H](CC(=O)O)C(=O)N[C@@H](CO)C(=O)N[C@@H](CCCCN)C(=O)N[C@@H](CCCNC(=N)N)C(=O)N[C@@H](C)C(=O)N3)NC(=O)[C@H](CCCNC(=N)N)NC(=O)[C@H](CC(C)C)NC(=O)CNC(=O)[C@H](CCC(=O)O)NC2=O` [compound 376], the Nav1.4/Nav1.7 is given as 3 and the Nav1.5/Nav1.7 is recorded as 731.

In the case of `CCCC[C@@H]1NC(=O)[C@H](Cc2c[nH]c3ccccc23)NC(=O)[C@H](CCCCN)NC(=O)[C@H](CCC(N)=O)NC(=O)[C@@H](NC(=O)[C@H](Cc2ccc(O)cc2)NC(=O)[C@@H](N)CCC(C)C)CSSC[C@@H]2NC(=O)[C@@H]3CSSC[C@@H](C(=O)N[C@@H](CCCNC(=N)N)C(=O)N[C@@H](CCCCN)C(=O)N[C@H](C(=O)N[C@H](C(N)=O)[C@@H](C)CC)[C@@H](C)CC)NC(=O)[C@H](Cc4c[nH]c5ccccc45)NC(=O)[C@H](CC(C)C)NC(=O)[C@H](CCCCN)NC(=O)[C@H](CSSC[C@H](NC(=O)[C@H]([C@@H](C)O)NC(=O)[C@H](Cc4c[nH]c5ccccc45)NC1=O)C(=O)N[C@@H](CC(=O)O)C(=O)N[C@@H](CO)C(=O)N[C@@H](CCCCN)C(=O)N[C@@H](CCCNC(=N)N)C(=O)N[C@@H](C)C(=O)N3)NC(=O)[C@H](CCCNC(=N)N)NC(=O)[C@H](CC(C)C)NC(=O)CNC(=O)[C@H](CCC(=O)O)NC2=O` [compound 377], the Nav1.4/Nav1.7 was found to be 13 and the Nav1.5/Nav1.7 is 615.

For the compound `CCCC[C@@H]1NC(=O)[C@H](Cc2c[nH]c3ccccc23)NC(=O)[C@H](CCCCN)NC(=O)[C@H](CCC(N)=O)NC(=O)[C@@H](NC(=O)[C@H](Cc2ccc(O)cc2)NC(=O)[C@@H](N)CCc2ccccc2)CSSC[C@@H]2NC(=O)[C@@H]3CSSC[C@@H](C(=O)N[C@@H](CCCNC(=N)N)C(=O)N[C@@H](CCCCN)C(=O)N[C@H](C(=O)N[C@H](C(N)=O)[C@@H](C)CC)[C@@H](C)CC)NC(=O)[C@H](Cc4c[nH]c5ccccc45)NC(=O)[C@H](CC(C)C)NC(=O)[C@H](CCCCN)NC(=O)[C@H](CSSC[C@H](NC(=O)[C@H]([C@@H](C)O)NC(=O)[C@H](Cc4c[nH]c5ccccc45)NC1=O)C(=O)N[C@@H](CC(=O)O)C(=O)N[C@@H](CO)C(=O)N[C@@H](CCCCN)C(=O)N[C@@H](CCCNC(=N)N)C(=O)N[C@@H](C)C(=O)N3)NC(=O)[C@H](CCCNC(=N)N)NC(=O)[C@H](CC(C)C)NC(=O)CNC(=O)[C@H](CCC(=O)O)NC2=O` [compound 379], the Nav1.4/Nav1.7 was 10 and the Nav1.5/Nav1.7 stood at 916.

Regarding `CCCC[C@@H]1NC(=O)[C@H](Cc2c[nH]c3ccccc23)NC(=O)[C@H](CCCCN)NC(=O)[C@H](CCC(N)=O)NC(=O)[C@@H](NC(=O)[C@H](Cc2ccc(O)cc2)NC(=O)[C@@H](N)CC#N)CSSC[C@@H]2NC(=O)[C@@H]3CSSC[C@@H](C(=O)N[C@@H](CCCNC(=N)N)C(=O)N[C@@H](CCCCN)C(=O)N[C@@H](CCC(=O)O)C(=O)N[C@H](C(N)=O)[C@@H](C)CC)NC(=O)[C@H](Cc4c[nH]c5ccccc45)NC(=O)[C@H](CC(C)C)NC(=O)[C@H](CCCCN)NC(=O)[C@H](CSSC[C@H](NC(=O)[C@H]([C@@H](C)O)NC(=O)[C@H](Cc4c[nH]c5ccccc45)NC1=O)C(=O)N[C@@H](CC(=O)O)C(=O)N[C@@H](CO)C(=O)N[C@@H](CCCCN)C(=O)N[C@@H](CCCNC(=N)N)C(=O)N[C@@H](CCCCNC(=O)CCOCCOCCOCCOCCOCCOCCOCCOCCOCCOCCOCCOCCN)C(=O)N3)NC(=O)[C@H](CCCNC(=N)N)NC(=O)[C@H](CC(C)C)NC(=O)CNC(=O)[C@H](CCC(=O)O)NC2=O` [compound 455], the Nav1.4/Nav1.7 stood at 86 and the Nav1.5/Nav1.7 is listed as 1101.

For the compound `CCCC[C@@H]1NC(=O)[C@H](Cc2c[nH]c3ccccc23)NC(=O)[C@H](CCCCN)NC(=O)[C@H](CCC(N)=O)NC(=O)[C@@H](NC(=O)[C@H](Cc2ccc(O)cc2)NC(=O)[C@@H](N)CC#N)CSSC[C@@H]2NC(=O)[C@@H]3CSSC[C@@H](C(=O)N[C@@H](CCCNC(=N)N)C(=O)N[C@@H](CCCCN)C(=O)N[C@@H](CCC(=O)O)C(=O)N[C@H](C(N)=O)[C@@H](C)CC)NC(=O)[C@H](Cc4c[nH]c5ccccc45)NC(=O)[C@H](CC(C)C)NC(=O)[C@H](CCCCN)NC(=O)[C@H](CSSC[C@H](NC(=O)[C@H]([C@@H](C)O)NC(=O)[C@H](Cc4c[nH]c5ccccc45)NC1=O)C(=O)N[C@@H](CC(=O)O)C(=O)N[C@@H](CO)C(=O)N[C@@H](CCCCN)C(=O)N[C@@H](CCCNC(=N)N)C(=O)N[C@@H](C)C(=O)N3)NC(=O)[C@H](CCCNC(=N)N)NC(=O)[C@H](CC(C)C)NC(=O)CNC(=O)[C@H](CCCCNC(=O)CCOCCOCCOCCOCCOCCOCCOCCOCCOCCOCCOCCOCCN)NC2=O` [compound 456], the Nav1.4/Nav1.7 is on record as 68 and the Nav1.5/Nav1.7 came to 967.

As for `CCCC[C@@H]1NC(=O)[C@H](Cc2c[nH]c3ccccc23)NC(=O)[C@H](CCCCN)NC(=O)[C@H](CCC(N)=O)NC(=O)[C@@H](NC(=O)[C@H](Cc2ccc(O)cc2)NC(=O)[C@@H](N)CCCCNC(=O)CCOCCOCCOCCOCCOCCOCCOCCOCCOCCOCCOCCOCCN)CSSC[C@@H]2NC(=O)[C@@H]3CSSC[C@@H](C(=O)N[C@@H](CCCNC(=N)N)C(=O)N[C@@H](CCCCN)C(=O)N[C@@H](CCC(=O)O)C(=O)N[C@@H](Cc4c[nH]c5ccccc45)C(N)=O)NC(=O)[C@H](Cc4c[nH]c5ccccc45)NC(=O)[C@H](CC(C)C)NC(=O)[C@H](CCCCN)NC(=O)[C@H](CSSC[C@H](NC(=O)[C@H]([C@@H](C)O)NC(=O)[C@H](Cc4c[nH]c5ccccc45)NC1=O)C(=O)N[C@@H](CC(=O)O)C(=O)N[C@@H](CO)C(=O)N[C@@H](CCCCN)C(=O)N[C@@H](CCCNC(=N)N)C(=O)N[C@@H](C)C(=O)N3)NC(=O)[C@H](CCCNC(=N)N)NC(=O)[C@H](CC(C)C)NC(=O)CNC(=O)[C@H](CCC(=O)O)NC2=O` [compound 458], the Nav1.4/Nav1.7 was 38 and the Nav1.5/Nav1.7 was determined as 202.

`CCCC[C@@H]1NC(=O)[C@H](Cc2c[nH]c3ccccc23)NC(=O)[C@H](CCCCN)NC(=O)[C@H](CCC(N)=O)NC(=O)[C@@H](NC(=O)[C@H](Cc2ccc(O)cc2)NC(=O)[C@@H](N)CC#N)CSSC[C@@H]2NC(=O)[C@@H]3CSSC[C@@H](C(=O)N[C@@H](CCCNC(=N)N)C(=O)N[C@@H](CCCCN)C(=O)N[C@@H](CCC(=O)O)C(=O)N[C@@H](Cc4c[nH]c5ccccc45)C(N)=O)NC(=O)[C@H](Cc4c[nH]c5ccccc45)NC(=O)[C@H](CC(C)C)NC(=O)[C@H](CCCCN)NC(=O)[C@H](CSSC[C@H](NC(=O)[C@H]([C@@H](C)O)NC(=O)[C@H](Cc4c[nH]c5ccccc45)NC1=O)C(=O)N[C@@H](CC(=O)O)C(=O)N[C@@H](CO)C(=O)N[C@@H](CCCCN)C(=O)N[C@@H](CCCNC(=N)N)C(=O)N[C@@H](C)C(=O)N3)NC(=O)[C@H](CCCNC(=N)N)NC(=O)[C@H](CC(C)C)NC(=O)CNC(=O)[C@H](CCCCNC(=O)CCOCCOCCOCCOCCOCCOCCOCCOCCOCCOCCOCCOCCN)NC2=O` [compound 459]: the Nav1.4/Nav1.7 was found to be 27.

For the compound `CCCC[C@@H]1NC(=O)[C@H](Cc2c[nH]c3ccccc23)NC(=O)[C@H](CCCCN)NC(=O)[C@H](CCC(N)=O)NC(=O)[C@@H](NC(=O)[C@H](Cc2ccc(O)cc2)NC(=O)[C@@H](N)CC(C)C)CSSC[C@@H]2NC(=O)[C@@H]3CSSC[C@@H](C(=O)N[C@@H](CCCNC(=N)N)C(=O)N[C@@H](CCCCN)C(=O)N[C@@H](CCC(=O)O)C(=O)N[C@H](C(N)=O)[C@@H](C)CC)NC(=O)[C@H](Cc4c[nH]c5ccccc45)NC(=O)[C@H](CC(C)C)NC(=O)[C@H](CCCCN)NC(=O)[C@H](CSSC[C@H](NC(=O)[C@H]([C@@H](C)O)NC(=O)[C@H](Cc4c[nH]c5ccccc45)NC1=O)C(=O)N[C@@H](CC(=O)O)C(=O)N[C@@H](CO)C(=O)N[C@@H](CCCCN)C(=O)N[C@@H](CCCNC(=N)N)C(=O)N[C@@H](C)C(=O)N3)NC(=O)[C@H](CCCNC(=N)N)NC(=O)[C@H](CC(C)C)NC(=O)CNC(=O)[C@H](CCCCNC(=O)CCOCCOCCOCCOCCOCCOCCOCCOCCOCCOCCOCCOCCN)NC2=O` [compound 462], the Nav1.4/Nav1.7 is recorded as 20.

Values taken from patent US10344060B2 (priority 2013, dated 2019).
